Measured values reported in publication PMC10526857, “In Vitro Enzymatic Studies Reveal pH and Temperature Sensitive Properties of the CLIC Proteins” (Biomolecules, 2023).

Tests used:
[1] = biological target: T1, CLIC3 (Homo sapiens, UniProt O95833); test: HEDS assay coupled to glutathione reductase, NADPH consumption at […] nm, Lineweaver-Burk; assay type: biochemical; settings: 1 mM GSH, 250 µM NADPH, 0.5 µg/mL yeast GR, 10 µM CLIC, 5 mM potassium phosphate pH 7, 1 mM EDTA, 37 °C
T1 construct: recombinant, E. coli BL21(DE3), pET-28a His-tag cut off with thrombin, Ni-NTA and SEC purified
T1 sequence (O95833 whole entry): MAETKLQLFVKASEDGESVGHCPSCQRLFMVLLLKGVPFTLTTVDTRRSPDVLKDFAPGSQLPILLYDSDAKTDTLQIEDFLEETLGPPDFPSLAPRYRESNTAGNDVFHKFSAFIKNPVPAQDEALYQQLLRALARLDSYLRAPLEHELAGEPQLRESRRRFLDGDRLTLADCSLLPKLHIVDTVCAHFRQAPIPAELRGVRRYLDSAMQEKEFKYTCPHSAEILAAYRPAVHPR

[2] = biological target: T2, CLIC1 (Homo sapiens, UniProt O00299); settings: 1 mM GSH, 250 µM NADPH, 0.5 µg/mL yeast GR, 10 µM CLIC, 5 mM potassium phosphate pH 7, 1 mM EDTA, 37 °C
[3] = biological target: T3, CLIC4 (Homo sapiens, UniProt Q9Y696); test: HEDS assay coupled to glutathione reductase, NADPH consumption at […] nm, Lineweaver-Burk; assay type: biochemical; settings: 1 mM GSH, 250 µM NADPH, 0.5 µg/mL yeast GR, 10 µM CLIC, 5 mM potassium phosphate pH 7, 1 mM EDTA, 37 °C
T3 construct: recombinant, E. coli, pGEX-4T-1 N-terminal GST tag cut off with thrombin, SEC purified
T3 sequence (Q9Y696 whole entry): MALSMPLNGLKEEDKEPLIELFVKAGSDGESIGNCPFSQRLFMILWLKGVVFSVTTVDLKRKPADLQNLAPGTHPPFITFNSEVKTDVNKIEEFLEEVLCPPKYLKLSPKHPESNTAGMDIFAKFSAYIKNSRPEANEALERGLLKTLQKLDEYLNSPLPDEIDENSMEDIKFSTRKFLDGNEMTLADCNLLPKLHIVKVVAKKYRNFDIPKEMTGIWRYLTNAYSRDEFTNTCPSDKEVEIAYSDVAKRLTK

[4] = biological target: T3, CLIC4; test: inhibition of HEDS reductase activity, GR-coupled NADPH consumption at […] nm; assay type: biochemical; settings: 10 µM inhibitor, 10 µM CLIC, 1 h preincubation at 4 °C; 1 mM HEDS, 1 mM GSH, 250 µM NADPH, 0.5 µg/mL GR, pH 7, 37 °C
[5] = biological target: T2, CLIC1; test: as above; assay type: biochemical; design: recombinant, E. coli BL21(DE3), pET-28a His-tag cut off with thrombin, Ni-NTA and SEC purified; settings: 10 µM inhibitor, 10 µM CLIC, 1 h preincubation at 4 °C; 1 mM HEDS, 1 mM GSH, 250 µM NADPH, 0.5 µg/mL GR, pH 7, 37 °C
[6] = biological target: T1, CLIC3; test: as above; assay type: biochemical; settings: 10 µM inhibitor, 10 µM CLIC, 1 h preincubation at 4 °C; 1 mM HEDS, 1 mM GSH, 250 µM NADPH, 0.5 µg/mL GR, pH 7, 37 °C

SMILES: OCCSSCCO [HEDS]
- Km [1]: 266 µM
- Km [2]: 274 µM
- Km [3]: 345 µM

SMILES: C[C@@H]1[C@H](O)[C@@H](C)/C=C/C=C/C=C/C=C/C=C/C=C/C=C/[C@H](O[C@@H]2O[C@H](C)[C@@H](O)[C@H](N)[C@@H]2O)C[C@@H]2O[C@](O)(C[C@@H](O)C[C@@H](O)[C@H](O)CC[C@@H](O)C[C@@H](O)CC(=O)O[C@H]1C)C[C@H](O)[C@H]2C(=O)O [amphotericin B]
- residual activity (%) at 10 μM [4]: Both rapamycin and amphotericin B caused inhibition of the enzymatic activity of all three proteins
- residual activity (%) at 10 μM [5]: with CLIC1′s activity virtually abolished by all three drugs
- residual activity (%) at 10 μM [6]: Both rapamycin and amphotericin B caused inhibition of the enzymatic activity of all three proteins

SMILES: CO[C@H]1C[C@@H]2CC[C@@H](C)[C@@](O)(O2)C(=O)C(=O)N2CCCC[C@H]2C(=O)O[C@H]([C@H](C)C[C@@H]2CC[C@@H](O)[C@H](OC)C2)CC(=O)[C@H](C)/C=C(\C)[C@@H](O)[C@@H](OC)C(=O)[C@H](C)C[C@H](C)/C=C/C=C/C=C/1C [rapamycin]
- residual activity (%) at 10 μM [4]: Both rapamycin and amphotericin B caused inhibition of the enzymatic activity of all three proteins
- residual activity (%) at 10 μM [5]: with CLIC1′s activity virtually abolished by all three drugs
- residual activity (%) at 10 μM [6]: Both rapamycin and amphotericin B caused inhibition of the enzymatic activity of all three proteins
